Columns and labels:
Assay type in all cases: cell-based
Design in all cases: unit not given here
A. baumannii KABA 01-33 = experiment: MIC by CLSI agar/broth dilution, Test Example 1; settings: Table 2; strain produces OXA-2, VIM-2
Procedure: (§1) The MIC (minimum inhibitory concentration) was determined by the CLSI (Clinical and Laboratory Standards Institute) methods. The agar dilution method for determining antimicrobial susceptibility was carried out using Mueller Hinton-II agar and the amount of inoculation was 10^4 CFU/spot. Broth dilution tests were performed using Mueller Hinton-II broth. All assays were run with the indicated control strains, available from the ATCC (American Type Culture Collection, Rockville, Md.).

A. baumannii 4010 = experiment: MIC by CLSI agar/broth dilution, Test Example 1; settings: Table 2; strain produces OXA-51
Procedure: as §1

P. aeruginosa ATCC27853 = experiment: MIC by CLSI agar/broth dilution, Test Example 1; settings: Table 2
Procedure: as §1

K. pneumoniae ATCC10031 = experiment: MIC by CLSI agar/broth dilution, Test Example 1; settings: Table 2
Procedure: as §1

E. coli ATCC10536 = experiment: MIC by CLSI agar/broth dilution, Test Example 1; settings: Table 2
Procedure: as §1

A. baumannii FSAb-056 = experiment: Antimicrobial Susceptibility Test (CLSI), Test Example 3; settings: Table 6; strain produces OXA-23, 51
Procedure: (§2) Antimicrobial Susceptibility Test was performed by the CLSI (Clinical and Laboratory Standards Institute) methods. The agar dilution method for determining antimicrobial susceptibility was carried out using Mueller Hinton-II agar and the amount of inoculation was 10^4CFU/spot. Broth dilution tests were performed using the Mueller Hinton-II broth. All assays were run with the indicated control strains, available from the ATCC (American Type Culture Collection, Rockville, Md.).

A. baumannii FSAb-039 = experiment: as above; settings: Table 6; strain produces OXA-51
Procedure: as §2

A. baumannii FSAb-141 = experiment: as above; settings: Table 6; strain produces PER-1, OXA-23, 51, 66
Procedure: as §2

E. coli FSEco-054 = experiment: as above; settings: Table 6; strain produces ESBL
Procedure: as §2

P. aeruginosa FSPa-102 = experiment: as above; settings: Table 6; strain produces IMP-1
Procedure: as §2

A. baumannii FSAb-029 = experiment: as above; settings: Table 6; strain produces OXA-2, IMP-1
Procedure: as §2

P. aeruginosa FSPa-141 = experiment: as above; settings: Table 6; strain produces VIM-2
Procedure: as §2

K. pneumoniae BAA-1904 = experiment: as above; settings: Table 6; strain produces KPC-3
Procedure: as §2

Row | MIC (minimum inhibitory concentration), A. baumannii KABA 01-33 (A. baumannii KABA 01-33) | MIC (minimum inhibitory concentration), A. baumannii 4010 (A. baumannii 4010) | MIC (minimum inhibitory concentration), P. aeruginosa ATCC27853 (P. aeruginosa ATCC27853) | MIC (minimum inhibitory concentration), K. pneumoniae ATCC10031 (K. pneumoniae ATCC10031) | MIC (minimum inhibitory concentration), E. coil ATCC10536 (E. coli ATCC10536) | SMILES | antimicrobial susceptibility, Ab FSAb-056 (A. baumannii FSAb-056) | antimicrobial susceptibility, Ab FSAb-039 (A. baumannii FSAb-039) | antimicrobial susceptibility, Ab FSAb-141 (A. baumannii FSAb-141) | antimicrobial susceptibility, Ec FSEco-054 (E. coli FSEco-054) | antimicrobial susceptibility, Pa FSPa-102 (P. aeruginosa FSPa-102) | antimicrobial susceptibility, Ab FSAb-029 (A. baumannii FSAb-029) | antimicrobial susceptibility, Pa FSPa-141 (P. aeruginosa FSPa-141) | antimicrobial susceptibility, Kp BAA-1904 (K. pneumoniae BAA-1904)
1 | 4 | 8 | >32 | 0.5 | 1 | C[C@@H](O)[C@H]1C(=O)N2C(C(=O)O)=C(CN(C)CCNC(=O)c3ccc(O)c(O)c3)[C@H](C)[C@H]12 [Compound 8] |  |  |  |  |  |  |  | 
2 | >32 | >32 | >32 | 1 | 32 | COc1ccc(C(=O)NCCN(C)CC2=C(C(=O)O)N3C(=O)[C@H]([C@@H](C)O)[C@H]3[C@H]2C)c(Cl)c1OC [Compound 15] |  |  |  |  |  |  |  | 
3 | 4 | 16 | 16 | 0.25 | 0.5 | C[C@@H](O)[C@H]1C(=O)N2C(C(=O)O)=C(CN(C)CC(=O)NCCNC(=O)c3ccc(O)c(O)c3)[C@H](C)[C@H]12 [Compound 20] |  |  |  |  |  |  |  | 
4 | 32 | >32 | >32 | 0.5 | 2 | C[C@@H](O)[C@H]1C(=O)N2C(C(=O)O)=C(CN(C)CC(=O)NCCc3ccc(O)c(O)c3)[C@H](C)[C@H]12 [Compound 22] |  |  |  |  |  |  |  | 
5 | 16 | >32 | >32 | 2 | 8 | C[C@@H](O)[C@H]1C(=O)N2C(C(=O)O)=C(CN(C)CCNC(=O)CCc3ccc(O)c(O)c3Cl)[C@H](C)[C@H]12 [Compound 23] |  |  |  |  |  |  |  | 
6 | 8 | 16 | 32 | 0.25 | 0.5 | C[C@@H](O)[C@H]1C(=O)N2C(C(=O)O)=C(CN(C)CCNC(=O)c3cc(=O)c(O)cn3O)[C@H](C)[C@H]12 [Compound 25] |  |  |  |  |  |  |  | 
7 | 16 | 8 | 16 | 0.063 | 0.063 | C[C@@H](O)[C@H]1C(=O)N2C(C(=O)O)=C(CN(C)CC(=O)NCc3cc(=O)c(O)co3)[C@H](C)[C@H]12 [Compound 27] |  |  |  |  |  |  |  | 
8 |  |  |  |  |  | C[C@@H](O)[C@H]1C(=O)N2C(C(=O)O)=C(CN(CCCNC(=O)c3ccc(O)c(O)c3)CCCNC(=O)c3ccc(O)c(O)c3)[C@H](C)[C@H]12 [Compound 110] | 8 | 8 | 4 | 4 | 8 | 2 | 16 | >32
9 |  |  |  |  |  | C[C@@H](O)[C@H]1C(=O)N2C(C(=O)O)=C(CN(CCCCNC(=O)c3ccc(O)c(O)c3)CCCNC(=O)c3ccc(O)c(O)c3)[C@H](C)[C@H]12 [Compound 111] | 8 | 4 | 2 | 4 | 4 | 2 | 16 | >32
10 |  |  |  |  |  | C[C@@H](O)[C@H]1C(=O)N2C(C(=O)O)=C(CN(CCCNC(=O)c3cccc(O)c3O)CCNC(=O)c3cccc(O)c3O)[C@H](C)[C@H]12 [Compound 112] | 32 | 8 | 4 | 8 | 16 | 4 | >32 | >32
11 |  |  |  |  |  | C[C@@H](O)[C@H]1C(=O)N2C(C(=O)O)=C(CN(CCCCNC(=O)c3cccc(O)c3O)CCCNC(=O)c3cccc(O)c3O)[C@H](C)[C@H]12 [Compound 113] | >32 | >32 | >32 | >32 | >32 | >32 | >32 | >32
12 |  |  |  |  |  | C[C@@H](O)[C@H]1C(=O)N2C(C(=O)[O-])=C(C[N+](C)(CCCNC(=O)c3ccc(O)c(O)c3F)CCCNC(=O)c3ccc(O)c(O)c3F)[C@H](C)[C@H]12 [Compound 114] | 8 | 32 | 2 | 2 | 4 | 1 | 4 | >32
13 |  |  |  |  |  | C[C@@H](O)[C@H]1C(=O)N2C(C(=O)O)=C(CN(C)CC(=O)N(CCCNC(=O)c3ccc(O)c(O)c3F)CCCNC(=O)c3ccc(O)c(O)c3F)[C@H](C)[C@H]12 [Compound 115] | 8 | 4 | 2 | 2 | 2 | 2 | 4 | >32
14 |  |  |  |  |  | C[C@@H](O)[C@H]1C(=O)N2C(C(=O)O)=C(CN(C)CC(=O)N(CCCNC(=O)c3ccc(O)c(O)c3F)CCCNC(=O)c3ccc(O)c(O)c3F)[C@H](C)[C@H]12 [Compound 117] | 4 | 4 | 2 | 1 | 2 | 2 | 8 | >32
15 |  |  |  |  |  | C[C@@H](O)[C@H]1C(=O)N2C(C(=O)[O-])=C(CN(C)CC[N+](C)(CCCNC(=O)c3ccc(O)c(O)c3F)CCCNC(=O)c3ccc(O)c(O)c3F)[C@H](C)[C@H]12 [Compound 118] | 8 | 8 | 4 | 2 | 4 | 2 | 8 | >32
16 |  |  |  |  |  | COc1ccc(C(=O)NCCCN(CCCNC(=O)c2ccc(O)c(O)c2F)CC2=C(C(=O)O)N3C(=O)[C@H]([C@@H](C)O)[C@H]3[C@H]2C)c(F)c1OC [Compound 119] | 8 | 8 | 8 | 16 | >32 | 4 | >32 | >32
17 |  |  |  |  |  | COc1ccc(C(=O)NCCCN(CCCNC(=O)c2ccc(OC)c(OC)c2F)CC2=C(C(=O)O)N3C(=O)[C@H]([C@@H](C)O)[C@H]3[C@H]2C)c(F)c1OC [Compound 120] | >32 | >32 | >32 | >32 | >32 | >32 | >32 | >32

— patent US10933051B2, “Carbapenem compounds and compositions for the treatment of bacterial infections” (FOB Synthesis, Inc., priority 2017, dated 2021)
